The values below come from patent US5532267A, “Amidinonaphthyl furancarboxylate derivatives and acid addition salts therof” (Torii & Co., Ltd., priority 1992, dated 1996).

Structures can show the parent of a compound that is named as a salt.

One assay has as its target T1, C1r (Homo sapiens, UniProt P00736).
T1 sequence (P00736 18-705): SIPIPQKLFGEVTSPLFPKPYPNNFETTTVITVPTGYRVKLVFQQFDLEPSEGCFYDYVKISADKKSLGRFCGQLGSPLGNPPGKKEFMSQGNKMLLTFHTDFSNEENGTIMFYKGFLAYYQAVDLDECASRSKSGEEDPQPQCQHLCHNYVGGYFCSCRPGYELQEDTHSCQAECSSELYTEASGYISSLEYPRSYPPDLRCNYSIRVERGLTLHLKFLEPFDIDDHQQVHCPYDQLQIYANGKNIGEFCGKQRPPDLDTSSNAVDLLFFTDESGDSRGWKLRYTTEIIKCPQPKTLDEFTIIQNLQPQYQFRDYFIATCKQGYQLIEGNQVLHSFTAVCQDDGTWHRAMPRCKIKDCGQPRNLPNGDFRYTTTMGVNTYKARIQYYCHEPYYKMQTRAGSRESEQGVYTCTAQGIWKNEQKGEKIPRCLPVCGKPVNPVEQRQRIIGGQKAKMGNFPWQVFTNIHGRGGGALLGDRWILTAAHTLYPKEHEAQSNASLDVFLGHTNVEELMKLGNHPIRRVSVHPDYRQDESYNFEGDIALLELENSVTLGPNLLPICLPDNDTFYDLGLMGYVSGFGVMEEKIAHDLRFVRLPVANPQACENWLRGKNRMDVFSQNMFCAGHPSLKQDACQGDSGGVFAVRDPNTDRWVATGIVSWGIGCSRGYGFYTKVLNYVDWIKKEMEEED
As to the kind of experiment: anti-complement (anti-C1 esterase) activity, C1r hydrolysis of AAME (acetyl-arginine methyl ester). The assay is classed as biochemical. The following applies: hydrolysis of AAME; read-out: Clr: molar concentration inhibiting 50% of C1r activity (IC50).

The next assay has as its target T2, C1s (Homo sapiens, UniProt P09871).
T2 sequence (P09871 16-688): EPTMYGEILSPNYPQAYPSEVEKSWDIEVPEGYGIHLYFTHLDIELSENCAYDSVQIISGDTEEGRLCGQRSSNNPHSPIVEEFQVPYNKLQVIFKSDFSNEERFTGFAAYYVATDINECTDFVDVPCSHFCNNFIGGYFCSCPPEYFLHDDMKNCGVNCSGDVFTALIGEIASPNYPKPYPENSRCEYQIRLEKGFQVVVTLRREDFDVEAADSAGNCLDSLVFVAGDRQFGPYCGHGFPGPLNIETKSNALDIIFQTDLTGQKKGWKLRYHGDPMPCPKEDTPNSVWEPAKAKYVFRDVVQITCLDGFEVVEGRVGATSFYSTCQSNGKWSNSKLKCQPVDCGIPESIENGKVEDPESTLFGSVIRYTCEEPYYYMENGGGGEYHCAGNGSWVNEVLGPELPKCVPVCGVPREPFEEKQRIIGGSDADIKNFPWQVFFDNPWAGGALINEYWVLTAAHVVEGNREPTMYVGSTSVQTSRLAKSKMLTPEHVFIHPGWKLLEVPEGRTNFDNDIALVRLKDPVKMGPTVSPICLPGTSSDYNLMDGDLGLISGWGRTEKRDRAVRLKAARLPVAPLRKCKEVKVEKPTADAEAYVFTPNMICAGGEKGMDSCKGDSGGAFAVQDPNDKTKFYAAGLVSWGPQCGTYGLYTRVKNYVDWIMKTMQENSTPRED
Put plainly: anti-complement (anti-C1 esterase) activity, C1s hydrolysis of ATEE (acetyltyrosine ethyl ester). The format is biochemical. The following applies: hydrolysis of ATEE; read-out: Cls: molar concentration inhibiting 50% of C1s activity (IC50).

Another assay concerns the target T3, trypsin (Bos taurus, UniProt P00760).
T3 sequence (P00760 24-246): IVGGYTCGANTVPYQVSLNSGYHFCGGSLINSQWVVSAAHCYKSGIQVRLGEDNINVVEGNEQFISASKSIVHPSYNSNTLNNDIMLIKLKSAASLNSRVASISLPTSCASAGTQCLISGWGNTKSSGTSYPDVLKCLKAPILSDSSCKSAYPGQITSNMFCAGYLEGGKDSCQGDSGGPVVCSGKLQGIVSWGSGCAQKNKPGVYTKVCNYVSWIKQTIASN
As to the kind of experiment: anti-trypsin activity, hydrolysis of TAME (tosylarginine methyl ester). The format is biochemical. Conditions: hydrolysis of TAME; read-out: Try: molar concentration inhibiting 50% of enzyme activity (IC50).

A further assay relates to kallikrein. As to the kind of experiment: anti-kallikrein activity, hydrolysis of TAME (tosylarginine methyl ester). The format is biochemical. The following applies: hydrolysis of TAME; read-out: Kal: molar concentration inhibiting 50% of enzyme activity (IC50). As to the method: (§1) The values in Table 1 represent molar concentrations (IC50) of test compounds which inhibit 50% of the activity of each enzyme to hydrolyze TAME (tosylarginine methyl ester). The anti-trypsin, anti-plasmin, anti-kallikrein and anti-thrombin activities were determined according to the method of Muramatsu et al. (J. Biochem. (1965), volume 58, page 214).

In the next assay the target is thrombin (Homo sapiens, UniProt P00734). As to the kind of experiment: anti-thrombin activity, hydrolysis of TAME (tosylarginine methyl ester). The assay is classed as biochemical. The following applies: hydrolysis of TAME; read-out: Thr: molar concentration inhibiting 50% of enzyme activity (IC50). As to the method: as §1
For the next assay, the system named is adjuvant arthritis. As to the kind of experiment: Effectiveness in treating adjuvant arthritis (Mycobacterium butyricum). The assay is classed as in vivo, rat. Conditions: oral, day -1 to day 13. As to the method: Adjuvant arthritis is known as a representative model of autoimmune diseases and is a effective means of testing agents to treat human rheumatoid arthritis (Encyclopedia of Immunology, edited by I. M. Roitt, Academic Press, 1992; Otterness, I. G., et al., J. of Rheumatology (1991), volume 18, pages 505-511),
The method of experiment was as follows. A 0.6% Mycobacterium butyricum liquid paraffin suspension, 0.1 ml/animal, was administered to a rat at a subcutaneous site of left hind-limb sole to induce adjuvant arthritis. The present compound was orally administered (in the form of a suspension in water) consecutively from 1 day before the induction to 13 days after the induction. The efficacy of the present compound on adjuvant arthritis was evaluated by examining the swelling accompanied by red spots and subcutaneous knots at the fore-limb, hind-limb, tail, ear and periphery of eye with the lapse of days (on the 8th, 10th, 12th, 14th, 16th and 18th days after adjuvant administration), expressing the results in terms of scores according to the method of F. D. Wood et al. (Int. Arch. Allergy (1969), volume 35, pages 456-467), and calculating the percentage inhibition relative to the control group. Thus, the higher value of percentage inhibition indicates the higher effectiveness.

For another assay, the target named is plasmin (Homo sapiens, UniProt P00747). As to the kind of experiment: anti-plasmin activity, hydrolysis of TAME (tosylarginine methyl ester). The format is biochemical. The following applies: hydrolysis of TAME; read-out: Pla: molar concentration inhibiting 50% of enzyme activity (IC50). The procedure: as §1
Chain of plasmin (P00747 581-810 limits assumed, species assumed): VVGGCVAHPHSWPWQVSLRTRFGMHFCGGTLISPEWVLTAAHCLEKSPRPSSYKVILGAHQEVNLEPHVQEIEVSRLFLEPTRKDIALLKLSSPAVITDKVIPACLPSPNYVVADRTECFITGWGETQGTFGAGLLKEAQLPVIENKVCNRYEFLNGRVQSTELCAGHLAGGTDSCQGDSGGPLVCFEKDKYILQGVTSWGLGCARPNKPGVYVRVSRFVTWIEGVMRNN
Chain of plasmin (P00747 97-580 partner limits assumed, species assumed): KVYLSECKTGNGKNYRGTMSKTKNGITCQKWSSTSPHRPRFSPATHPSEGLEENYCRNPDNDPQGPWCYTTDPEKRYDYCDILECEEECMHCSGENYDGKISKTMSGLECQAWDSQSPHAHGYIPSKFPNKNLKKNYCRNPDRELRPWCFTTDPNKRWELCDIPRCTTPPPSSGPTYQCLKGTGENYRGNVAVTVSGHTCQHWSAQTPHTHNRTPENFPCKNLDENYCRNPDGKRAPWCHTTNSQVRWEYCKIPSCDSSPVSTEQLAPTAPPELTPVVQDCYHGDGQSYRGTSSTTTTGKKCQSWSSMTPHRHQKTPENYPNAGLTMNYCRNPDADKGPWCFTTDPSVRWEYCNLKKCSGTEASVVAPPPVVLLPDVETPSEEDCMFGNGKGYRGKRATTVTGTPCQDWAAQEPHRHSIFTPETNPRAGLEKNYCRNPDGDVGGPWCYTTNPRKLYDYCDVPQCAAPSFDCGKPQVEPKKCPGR
Another assay has as its system Masugi's nephritis. Put plainly: Effectiveness in treating Masugi's nephritis (experimental glomerulonephritis), protein in urine. The assay is classed as in vivo, rat. Conditions: oral, mean ± standard deviation, 7 animals, control group 40.8 ± 15.1. The procedure: […] […] As the index to effectiveness, the protein concentration in urine was determined. That is, when inflammation develops in the kidney, it causes damage to renal tubules, etc., and a resultant increase in protein concentration in urine.

Experimental for C1s: The anti-C1 esterase (C1r, C1s) activity was determined according to the method of Okamura et al. (Biochem. Biophys. Acta (1973), volume 295, pages 252-257). […] The values for C1s represent molar concentrations (IC50) of test compounds which inhibit 50% of the activity of C1s to hydrolyze ATEE (acetyltyrosine ethyl ester).

Consider `CN(C)C(=O)COC(=O)CCC(=O)NCc1ccc(C(=O)Oc2ccc3cc(C(=N)N)ccc3c2)o1` [Example 31, 6-Amidino-2-naphthyl 5-(3-N,N-dimethylcarbamoylmethoxycarbonylpropionylaminomethyl)furan-2-carboxylate hydrochloride], for which the IC50 amounted to 290 nM at C1r; 450 nM at C1s; 600 nM on trypsin; 170 nM in the assay on kallikrein; 150 nM on thrombin; 160 nM at plasmin. Also, the “Percentage inhibition (arthritis score)” value in the assay with adjuvant arthritis (30 mg/kg) was 67.7%.

As to `COC(=O)CCC(=O)NCc1ccc(C(=O)Oc2ccc3cc(C(=N)N)ccc3c2)o1.Cl` [Example 34, 6-Amidino-2-naphthyl 5-(3-methoxycarbonylpropionylaminomethyl)furan-2-carboxylate hydrochloride], the IC50 was 330 nM at C1r; 170 nM at C1s; 270 nM at trypsin; 130 nM with kallikrein; 89 nM on thrombin; 130 nM at plasmin. Also, in the assay on Masugi's nephritis (30 mg/kg), the “Protein concentration in urine” value is 29.3 ± 18.8 mg/mL.

For the molecule `Cl.N=C(N)c1ccc2cc(OC(=O)c3ccc(CNC(=O)CC(=O)O)o3)ccc2c1` [Example 17, 6-Amidino-2-naphthyl 5-carboxyacetylaminomethylfuran-2-carboxylate hydrochloride], the IC50 stood at 1700 nM on C1r; 53 nM on C1s; 470 nM on trypsin; 1100 nM in the assay with kallikrein; 1900 nM at thrombin; 43 nM at plasmin. The “Protein concentration in urine” value with Masugi's nephritis (10 mg/kg) is 2.0 ± 2.0 mg/mL. Besides, the “Percentage inhibition (arthritis score)” value in the assay on adjuvant arthritis (60 mg/kg) is 75.1%.
